# Patent US12162897B2, “1,4-sulfur-bridged polycyclic compounds containing dihydrobenzofuran structure, its preparation method and application thereof” (Chengdu University, priority 2021, dated 2024)
# Tests used:
# [1] = tested on: human lung cancer cells A549; assay: Cell viability assay, human lung cancer cells A549; assay type: cell-based; details: 5000 cells per well, 96-well plate, 48 hours with compound, mean of repeats
# Method: (§1) Specific experimental operations: 5000 human leukemia cells K562 and human lung cancer cells A549 are seeded into 96-well cell culture plates respectively to grow for 24 hours. Then, a predetermined concentration of the above synthesized compounds are added respectively, wherein the antitumor drug cisplatin is used as a control for 48 hours. The mean 50% inhibitory concentration (IC50) of all compounds is then determined. Each concentration is repeated at least three times, and all experiments are repeated three times, and the average results obtained are shown in Table 1.
# [2] = tested on: human leukemia cells K562; assay: Cell viability assay, human leukemia cells K562; assay type: cell-based; details: 5000 cells per well, 96-well plate, 48 hours with compound, mean of repeats
# Method: as §1
"IC50 ([1]; Homo sapiens, A549, 48 h) [µM]","IC50 ([2]; Homo sapiens, K562, 48 h) [µM]",Compound,IC50 [1] [µM],IC50 [2] [µM]
,,"N.N.[Cl][Pt][Cl] [Cisplatin, cisplatin, reference compound]",24,20.3
28.2,12.4,C[C@@]12S[C@@](c3ccccc3)(NC1=O)[C@]1([N+](=O)[O-])Oc3ccccc3[C@H]21 [I-aa],,
57,52.2,C[C@@]12S[C@@](c3ccccc3F)(NC1=O)[C@]1([N+](=O)[O-])Oc3ccccc3[C@H]21 [I-ab],,
58.2,74.6,C[C@@]12S[C@@](c3ccc(F)cc3)(NC1=O)[C@]1([N+](=O)[O-])Oc3ccccc3[C@H]21 [I-ac],,
40,50.2,C[C@@]12S[C@@](c3ccc(Cl)cc3)(NC1=O)[C@]1([N+](=O)[O-])Oc3ccccc3[C@H]21 [I-ad],,
45.5,54.7,C[C@@]12S[C@@](c3ccc(Br)cc3)(NC1=O)[C@]1([N+](=O)[O-])Oc3ccccc3[C@H]21 [I-ae],,
39.5,46.4,C[C@@]12S[C@@](c3cccc(Br)c3F)(NC1=O)[C@]1([N+](=O)[O-])Oc3ccccc3[C@H]21 [I-af],,
,,C[C@@]12S[C@@](c3cccc(Br)c3F)(NC1=O)[C@]1([N+](=O)[O-])Oc3ccccc3[C@H]21 [I-ag],44.6,30.2
20.5,59.4,C[C@@]12S[C@@](c3ccc4ccccc4n3)(NC1=O)[C@]1([N+](=O)[O-])Oc3ccccc3[C@H]21 [I-ah],,
23.9,32.3,C[C@@]12S[C@@](c3ccccn3)(NC1=O)[C@]1([N+](=O)[O-])Oc3ccccc3[C@H]21 [I-ai],,
32.6,13,C[C@@]12S[C@@](c3ccccc3)(NC1=O)[C@]1([N+](=O)[O-])Oc3ccc(F)cc3[C@H]21 [I-ba],,
57.7,19,C[C@@]12S[C@@](c3ccccc3)(NC1=O)[C@]1([N+](=O)[O-])Oc3c(F)cccc3[C@H]21 [I-ca],,
34.3,10.3,C[C@@]12S[C@@](c3ccccc3)(NC1=O)[C@]1([N+](=O)[O-])Oc3cccc(Cl)c3[C@H]21 [I-da],,
45.3,21.4,C[C@@]12S[C@@](c3ccccc3)(NC1=O)[C@]1([N+](=O)[O-])Oc3ccc(Cl)cc3[C@H]21 [I-ea],,
67.6,30.9,C[C@@]12S[C@@](c3ccccc3)(NC1=O)[C@]1([N+](=O)[O-])Oc3ccc(Br)cc3[C@H]21 [I-fa],,
30.8,7.09,C[C@@]12S[C@@](c3ccccc3)(NC1=O)[C@]1([N+](=O)[O-])Oc3cc(Br)ccc3[C@H]21 [I-ga],,
33.3,14.5,Cc1ccc2c(c1)O[C@]1([N+](=O)[O-])[C@H]2[C@]2(C)S[C@@]1(c1ccccc1)NC2=O [I-ia],,
4.83,2.6,COc1ccc2c(c1)O[C@]1([N+](=O)[O-])[C@H]2[C@]2(C)S[C@@]1(c1ccccc1)NC2=O [I-ja],,
33,29.6,CC(C)(C)c1ccc2c(c1)[C@@H]1[C@]3(C)S[C@@](c4ccccc4)(NC3=O)[C@]1([N+](=O)[O-])O2 [I-ka],,
15.6,3.1,COc1cc(Br)cc2c1O[C@]1([N+](=O)[O-])[C@H]2[C@]2(C)S[C@@]1(c1ccccc1)NC2=O [I-la],,

Compound,"IC50 ([1]; Homo sapiens, A549, 48 h) [µM]","IC50 ([2]; Homo sapiens, K562, 48 h) [µM]",IC50 [1] [µM],IC50 [2] [µM]
C[C@@]12S[C@@](c3ccccc3)(NC1=O)[C@]1([N+](=O)[O-])Oc3ccc([N+](=O)[O-])cc3[C@H]21 [I-ha],67.3,22.3,,
